Assay results from US20080021056A1, “Fused, Tricyclic Sulfonamide Inhibitors of Gamma Secretase” (priority 2006, published 2008).

biological target: T1, gamma-secretase (Homo sapiens, UniProt P49768); test: Gamma-secretase APP enzyme assay; type: biochemical; settings: cleavage of MBP-C125 Swe substrate at the Aβ40 site; partially purified extract of IMR-32 cell membranes; ELISA
T1 construct: partially purified extract of IMR-32 cell membranes as the gamma-secretase enzyme preparation; endogenous in cells; host or cells: IMR-32 cell membranes (partially purified extract)
Description: The gamma-secretase APP enzyme assay was designed to measure the specific proteolytic cleavage of an APP substrate (MBP-C125 Swe fusion protein) at the Aβ40 site. The assay used a partially purified extract of IMR-32 cell membranes as the gamma-secretase enzyme preparation and a recombinant fusion protein containing the C-terminal 125 amino acids of the Swedish variant of the APP (MBP-C125swe) as the substrate. This assay involved two steps beginning with the enzymatic reaction generating a cleavage product that was captured with an immobilized antibody specific for the neo-epitope Aβ40 site. The captured cleavage product was then detected in a sandwich ELISA assay with a biotinylated reporter antibody that is specific to Aβ (17-28). Streptavidin-linked alkaline phosphatase was then added that would generate a fluorescent signal proportional to the amount of cleavage product. This assay was used to discover small molecule inhibitors of gamma-secretase.
Briefly, a 149 mg/ml solution of BIGCHAP detergent was made with water at 42° C. and then rotated for 30 minutes at the same temperatures This warmed solution of BigCHAPS (N,N-Bis(3-D-gluconamidopropyl)cholamide) detergent was used to dissolve Brain Extract Type-V (lipid containing a minimum of 40% phosphatidylethanolamine) from Signa (St. Louis, Mo.) to a concentration of 8 mg/ml. This solution containing BigCHAPS and lipid at 8 mg/ml is then diluted to 0.53 mg/ml lipid with a pre-warmed solution of Hepes and sodium chloride. This final solution containing Hepes buffer, sodium chloride, BigCHAPS detergent and lipid is used to create working solutions of both gamma-secretase (25 Units) and the MBP-C125 substrate (0.05 mg/ml).
Gamma-secretase was then added to a 96-well micro-titre plate and then incubated with various concentrations of inhibitor for 30 minutes at 37° C. MBPC125 substrate was then added to initiate the reaction that would run for two hours at 37° C. The reaction was quenched with the addition of SDS to a final concentration of 0.1% and then 100 μl of the reaction mixture was transferred to a capture ELISA plate and incubated overnight at 4° C. Detection of the cleavage product was performed using a standard sandwich ELISA assay and quantified using a six point standard curve.

Compound	IC50
O=S(=O)(c1ccc(C(F)(F)F)nc1)N1c2ccccc2-c2[nH]ncc2C1C1CC1 (stereo not drawn) [4-cyclopropyl-5-(6-(trifluoromethyl)pyridin-3-ylsulfonyl)-4,5-dihydro-1H-pyrazolo[4,3-c]quinoline]	0.1 to 100 nM
O=S(=O)(c1ccc(OC(F)(F)F)cc1)N1c2cc(F)c(F)cc2-c2[nH]ncc2C1C1CC1 (stereo not drawn) [4-cyclopropyl-7,8-difluoro-5-(4-(trifluoromethoxy)phenylsulfonyl)-4,5-dihydro-1H-pyrazolo[4,3-c]quinoline]	0.1 to 100 nM
O=S(=O)(c1ccc(F)cc1)N1c2cc(F)c(F)cc2-c2n[nH]cc2C1C1CC1 (stereo not drawn) [4-cyclopropyl-7,8-difluoro-5-(4-fluorophenylsulfonyl)-4,5-dihydro-2H-pyrazolo[4,3-c]quinoline]	0.1 to 100 nM
O=S(=O)(c1ccc(C(F)(F)F)cn1)N1c2cc(F)c(F)cc2-c2[nH]ncc2C1C1CC1 (stereo not drawn) [4-cyclopropyl-7,8-difluoro-5-(5-(trifluoromethyl)pyridin-2-ylsulfonyl)-4,5-dihydro-1H-pyrazolo[4,3-c]quinoline]	0.1 to 100 nM
O=S(=O)(c1ccc(C(F)(F)F)nc1)N1c2cc(F)c(F)cc2-c2[nH]ncc2C1C1CC1 (stereo not drawn) [4-cyclopropyl-7,8-difluoro-5-(6-(trifluoromethyl)pyridin-3-ylsulfonyl)-4,5-dihydro-1H-pyrazolo[4,3-c]quinoline]	0.1 to 100 nM
O=S(=O)(c1cccs1)N1c2cc(F)c(F)cc2-c2n[nH]cc2C1C1CC1 (stereo not drawn) [4-cyclopropyl-7,8-difluoro-5-(thiophen-2-ylsulfonyl)-4,5-dihydro-2H-pyrazolo[4,3-c]quinoline]	0.1 to 100 nM
Cc1nc2c(s1)N(S(=O)(=O)c1ccc(C(F)(F)F)cc1)C(C1CC1)c1c[nH]nc1-2 (stereo not drawn) [4-cyclopropyl-7-methyl-5-(4-(trifluoromethyl)phenylsulfonyl)-4,5-dihydro-1H-pyrazolo[3,4-d]thiazolo[5,4-b]pyridine]	0.1 to 100 nM
CCC1c2cn[nH]c2-c2cc(F)c(F)cc2N1S(=O)(=O)c1ccc(C(F)(F)F)cn1 (stereo not drawn) [4-ethyl-7,8-difluoro-5-(5-(trifluoromethyl)pyridin-2-ylsulfonyl)-4,5-dihydro-1H-pyrazolo[4,3-c]quinoline]	0.1 to 100 nM
CC1c2c[nH]nc2-c2ccccc2N1S(=O)(=O)c1ccccn1 (stereo not drawn) [4-methyl-5-(pyridin-2-ylsulfonyl)-4,5-dihydro-2H-pyrazolo[4,3-c]quinoline]	101 to 500 nM
CC1c2cn[nH]c2-c2ccccc2N1S(=O)(=O)c1cccnc1 (stereo not drawn) [4-methyl-5-(pyridin-3-ylsulfonyl)-4,5-dihydro-1H-pyrazolo[4,3-c]quinoline]	101 to 500 nM
O=S(=O)(c1ccc(Cl)cc1)N1Cc2cn[nH]c2-n2ccnc21 [5-(4-chlorophenylsulfonyl)-4,5-dihydro-1H-imidazo[1,2-a]pyrazolo[4,3-e]pyrimidine]	101 to 500 nM
O=S(=O)(c1ccc(Cl)cc1)N1c2ccccc2-c2n[nH]cc2C1C(F)(F)F (stereo not drawn) [5-(4-chlorophenylsulfonyl)-4-(trifluoromethyl)-4,5-dihydro-2H-pyrazolo[4,3-c]quinoline]	0.1 to 100 nM
O=S(=O)(c1ccc(Cl)cc1)N1c2nccn2-c2[nH]ncc2C1C1CC1 (stereo not drawn) [5-(4-chlorophenylsulfonyl)-4-cyclopropyl-4,5-dihydro-1H-imidazo[1,2-a]pyrazolo[4,3-e]pyrimidine]	101 to 500 nM
O=S(=O)(c1ccc(Cl)cc1)N1c2ccccc2-c2n[nH]cc2C1C1CC1 (stereo not drawn) [5-(4-chlorophenylsulfonyl)-4-cyclopropyl-4,5-dihydro-2H-pyrazolo[4,3-c]quinoline]	0.1 to 100 nM
CCC1c2cn[nH]c2-c2ccccc2N1S(=O)(=O)c1ccc(Cl)cc1 (stereo not drawn) [5-(4-chlorophenylsulfonyl)-4-ethyl-4,5-dihydro-1H-pyrazolo[4,3-c]quinoline]	0.1 to 100 nM
CC(C)C1c2c[nH]nc2-c2ccccc2N1S(=O)(=O)c1ccc(Cl)cc1 (stereo not drawn) [5-(4-chlorophenylsulfonyl)-4-isopropyl-4,5-dihydro-2H-pyrazolo[4,3-c]quinoline]	0.1 to 100 nM
CC1c2cn[nH]c2-c2ccc(O)cc2N1S(=O)(=O)c1ccc(Cl)cc1 (stereo not drawn) [5-(4-chlorophenylsulfonyl)-4-methyl-4,5-dihydro-1H-pyrazolo[4,3-c]quinolin-7-ol]	0.1 to 100 nM
CC1c2c[nH]nc2-c2ccc(OC(=O)N(C)C)cc2N1S(=O)(=O)c1ccc(Cl)cc1 (stereo not drawn) [5-(4-chlorophenylsulfonyl)-4-methyl-4,5-dihydro-1H-pyrazolo[4,3-c]quinolin-7-yl dimethylcarbamate]	0.1 to 100 nM
CC1c2cn[nH]c2-c2cc(O)c(O)cc2N1S(=O)(=O)c1ccc(Cl)cc1 (stereo not drawn) [5-(4-chlorophenylsulfonyl)-4-methyl-4,5-dihydro-1H-pyrazolo[4,3-c]quinoline-7,8-diol]	0.1 to 100 nM
CC1c2c[nH]nc2-c2cc3c(cc2N1S(=O)(=O)c1ccc(Cl)cc1)OCO3 (stereo not drawn) [5-(4-chlorophenylsulfonyl)-4-methyl-4,5-dihydro-2H-[1,3]dioxolo[4,5-g]pyrazolo[4,3-c]quinoline]	0.1 to 100 nM
CC1c2c[nH]nc2-c2ccncc2N1S(=O)(=O)c1ccc(Cl)cc1 (stereo not drawn) [5-(4-chlorophenylsulfonyl)-4-methyl-4,5-dihydro-2H-pyrazolo[4,3-c][1,7]naphthyridine]	0.1 to 100 nM
CC1c2c[nH]nc2-c2cccnc2N1S(=O)(=O)c1ccc(Cl)cc1 (stereo not drawn) [5-(4-chlorophenylsulfonyl)-4-methyl-4,5-dihydro-2H-pyrazolo[4,3-c][1,8]naphthyridine]	0.1 to 100 nM
CC1c2c[nH]nc2-c2cc(O)ccc2N1S(=O)(=O)c1ccc(Cl)cc1 (stereo not drawn) [5-(4-chlorophenylsulfonyl)-4-methyl-4,5-dihydro-2H-pyrazolo[4,3-c]quinolin-8-ol]	0.1 to 100 nM
CC1c2c[nH]nc2-c2ccc(F)cc2N1S(=O)(=O)c1ccc(Cl)cc1 (stereo not drawn) [5-(4-chlorophenylsulfonyl)-7-fluoro-4-methyl-4,5-dihydro-2H-pyrazolo[4,3-c]quinoline]	0.1 to 100 nM
O=c1c2cn[nH]c2c2cc(F)ccc2n1S(=O)(=O)c1ccc(Cl)cc1 [5-(4-chlorophenylsulfonyl)-8-fluoro-1H-pyrazolo[4,3-c]quinolin-4(5H)-one]	1000 to 10000 nM
CC1c2c[nH]nc2-c2c(F)cccc2N1S(=O)(=O)c1ccc(Cl)cc1 (stereo not drawn) [5-(4-chlorophenylsulfonyl)-9-fluoro-4-methyl-4,5-dihydro-2H-pyrazolo[4,3-c]quinoline]	0.1 to 100 nM
O=S(=O)(c1ccc(F)cc1)N1c2ncccc2-c2n[nH]cc2C1C(F)(F)F (stereo not drawn) [5-(4-fluorophenylsulfonyl)-4-(trifluoromethyl)-4,5-dihydro-2H-pyrazolo[4,3-c][1,8]naphthyridine]	0.1 to 100 nM
O=S(=O)(c1ccc(Cl)cn1)N1c2cc(F)c(F)cc2-c2[nH]ncc2C1C1CC1 (stereo not drawn) [5-(5-chloropyridin-2-ylsulfonyl)-4-cyclopropyl-7,8-difluoro-4,5-dihydro-1H-pyrazolo[4,3-c]quinoline]	0.1 to 100 nM
O=S(=O)(c1ccc(Cl)cn1)N1c2ccc(F)cc2-c2n[nH]cc2C1C1CC1 (stereo not drawn) [5-(5-chloropyridin-2-ylsulfonyl)-4-cyclopropyl-8-fluoro-4,5-dihydro-1H-pyrazolo[4,3-c]quinoline]	0.1 to 100 nM
O=S(=O)(c1ccc(Cl)s1)N1c2cc(F)c(F)cc2-c2n[nH]cc2C1C1CC1 (stereo not drawn) [5-(5-chlorothiophen-2-ylsulfonyl)-4-cyclopropyl-7,8-difluoro-4,5-dihydro-2H-pyrazolo[4,3-c]quinoline]	0.1 to 100 nM
